Molecular target: human TMEM16A (TMEM16Aabc variant) (Homo sapiens, UniProt Q5XXA6, DEL476-501, form not given)
Assay: Automated whole-cell patch clamp (Qpatch) TMEM16A potentiator assay in FRT cells stably expressing human TMEM16A
Format: cell-based
Settings: for % Potentiation @ 3.33 μM Avg: 3.33 μM solution of test compound, percentage increase of baseline TMEM16A current; for EC50: calculated EC50, Qpatch TMEM16A current at +70 mV
Procedure, shortened: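 Potentiation was read as the rise in peak +70 mV current over baseline (%), from cumulative 5-min additions of compound. Recordings used whole-cell automated patch of FRT cells stably carrying human TMEM16Aabc, with pipette Ca2+ buffered to give ~20% maximal current. EC50 and efficacy came from concentration-response fits.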

human TMEM16A (TMEM16Aabc variant), sequence (Q5XXA6 with tags, fused parts or gaps DEL476-501): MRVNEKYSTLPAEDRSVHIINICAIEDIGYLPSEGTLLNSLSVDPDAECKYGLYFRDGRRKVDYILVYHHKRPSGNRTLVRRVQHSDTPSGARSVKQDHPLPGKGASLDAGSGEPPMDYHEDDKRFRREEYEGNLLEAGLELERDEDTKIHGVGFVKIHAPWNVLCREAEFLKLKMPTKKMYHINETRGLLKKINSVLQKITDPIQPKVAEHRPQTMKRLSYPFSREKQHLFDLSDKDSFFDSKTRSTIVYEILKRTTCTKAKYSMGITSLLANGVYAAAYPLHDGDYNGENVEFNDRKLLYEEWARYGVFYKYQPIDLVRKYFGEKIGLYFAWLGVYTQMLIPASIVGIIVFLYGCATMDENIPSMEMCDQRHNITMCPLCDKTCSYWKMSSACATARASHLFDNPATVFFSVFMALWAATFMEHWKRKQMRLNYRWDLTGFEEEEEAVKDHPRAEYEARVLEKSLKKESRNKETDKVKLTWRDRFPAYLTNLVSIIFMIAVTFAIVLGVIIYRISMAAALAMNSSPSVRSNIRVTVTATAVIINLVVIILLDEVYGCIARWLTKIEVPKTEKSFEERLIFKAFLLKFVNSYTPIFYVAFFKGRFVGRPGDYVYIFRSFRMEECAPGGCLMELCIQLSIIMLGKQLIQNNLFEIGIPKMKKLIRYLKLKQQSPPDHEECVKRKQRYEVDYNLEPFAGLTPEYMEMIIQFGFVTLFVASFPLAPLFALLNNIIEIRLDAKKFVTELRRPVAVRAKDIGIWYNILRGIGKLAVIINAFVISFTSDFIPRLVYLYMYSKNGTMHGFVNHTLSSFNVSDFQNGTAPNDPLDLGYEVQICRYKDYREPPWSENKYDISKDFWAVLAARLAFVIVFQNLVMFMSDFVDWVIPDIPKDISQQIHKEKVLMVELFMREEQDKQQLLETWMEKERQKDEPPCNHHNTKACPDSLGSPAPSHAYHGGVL

Compound | % Potentiation @ 3.33 μM Avg | EC50
CC(C)(C)c1ccc(O)c(CC(=O)Nc2ccnc(C(=O)NC34CC(C3)C4)c2)c1 [Example 25, N-(3-Bicyclo[1.1.1]pentanyl)-4-[[2-(5-tert-butyl-2-hydroxy-phenyl)acetyl]amino] pyridine-2-carboxamide] | 330% | 370 nM
O=C(Cc1cc(Cl)ccc1O)Nc1ccnc(C(=O)N[C@@H]2CCC[C@@H]2O)c1 [Example 35.18, 4-[[2-(5-Chloro-2-hydroxy-phenyl)acetyl]amino]-N-[(1R,2S)-2-hydroxycyclopentyl]pyridine-2-carboxamide] | 147% | 430 nM
C[C@H](NC(=O)Nc1ccnc(C(=O)NC(C)(C)C)c1)c1ccccc1 [Example 64.4, N-tert-Butyl-4-[[(1S)-1-phenylethyl]carbamoylamino]pyridine-2-carboxamide] | 2% | 
CC(C)(C)NC(=O)c1cc(NC(=O)Cc2c(O)c(Br)cc(Cl)c2Br)ccn1 [Example 3.11b, N-tert-Butyl-4-[[2-(2,5-dibromo-3-chloro-6-hydroxy-phenyl)acetyl]amino]pyridine-2-carboxamide] | 168% | 410 nM
CC(C)(C)NC(=O)c1cc(NC(=O)Cc2ccc(Cl)c(F)c2)ccn1 [Example 5.18, N-tert-Butyl-4-[[2-(4-chloro-3-fluoro-phenyl)acetyl]amino]pyridine-2-carboxamide] | 79% | 460 nM
CC(C)(C)NC(=O)c1cccc(NC(=O)Cc2cc(F)cc(F)c2O)c1 [Example 2.9, N-tert-Butyl-3-[[2-(3,5-difluoro-2-hydroxy-phenyl)acetyl]amino] benzamide] | 148% | 990 nM
CC(C)(C)NC(=O)c1cc(NC(=O)NCc2ccc(O)cc2)ccn1 [Example 65.4, N-tert-Butyl-4-[(4-hydroxyphenyl)methylcarbamoylamino]pyridine-2-carboxamide] | 10% | 
CC(C)(C)NC(=O)c1cccc(NC(=O)Cc2c(O)cccc2F)c1 [Example 2.15, N-tert-Butyl-3-[[2-(2-fluoro-6-hydroxy-phenyl)acetyl]amino]benzamide] | 163% | 490 nM
CC(C)(C)NC(=O)c1cccc(NC(=O)Cc2c[nH]c3ccccc23)c1 [Example 4.5, N-tert-Butyl-3-[[2-(1H-indol-3-yl)acetyl]amino]benzamide] | 138% | 700 nM
C#CC(C)(C)NC(=O)c1cc(NC(=O)Cc2ccc(C(C)(C)C)c(O)c2)ccn1 [Example 93.5, 4-[[2-(4-tert-Butyl-3-hydroxy-phenyl)acetyl]amino]-N-(1,1-dimethylprop-2-ynyl)pyridine-2-carboxamide] | 136% | 20 nM
CC(C)(C#N)NC(=O)c1cc(NC(=O)c2cccnc2Oc2ccccc2)ccn1 [Example 83.25, N-[2-[(1-Cyano-1-methyl-ethyl)carbamoyl]-4-pyridyl]-2-phenoxy-pyridine-3-carboxamide] | -8% | 
N#CC1(NC(=O)c2cc(NC(=O)Cc3cc(Cl)ccc3O)ccn2)COC1 [Example 47.3, 4-[[2-(5-Chloro-2-hydroxy-phenyl)acetyl]amino]-N-(3-cyanooxetan-3-yl)pyridine-2-carboxamide] | 237% | 350 nM
C#CC(C)(C)NC(=O)c1cc(NC(=O)Cc2cccc3[nH]ncc23)ccn1 [Example 79.2, N-(1,1-Dimethylprop-2-ynyl)-4-[[2-(1H-indazol-4-yl)acetyl]amino]pyridine-2-carboxamide] | 211% | 
CC(C)(C)NC(=O)c1cc(NC(=O)Cc2cc(C(F)(F)F)ccc2O)ccn1 [Example 3.5b, N-tert-Butyl-4-[[2-[2-hydroxy-5-(trifluoromethyl)phenyl]acetyl]amino]pyridine-2-carboxamide] | 150% | 200 nM
CCC(C)NC(=O)c1cc(NC(=O)Cc2cc(Cl)ccc2O)ccn1 (stereo not drawn) [Example 7.13, 4-[[2-(5-Chloro-2-hydroxy-phenyl)acetyl]amino]-N-sec-butyl-pyridine-2-carboxamide] | 212% | 90 nM
CC(C)(C)NC(=O)c1cc(NC(=O)Cc2cccc(Cl)c2)ccn1 [Example 5.5, N-tert-Butyl-4-[[2-(3-chlorophenyl)acetyl]amino]pyridine-2-carboxamide] | 132% | 720 nM
COc1cccc(CC(=O)Nc2cccc(C(=O)NC(C)(C)C)c2)c1O [Example 2.8, N-tert-Butyl-3-[[2-(2-hydroxy-3-methoxy-phenyl)acetyl]amino] benzamide] | 74% | 4550 nM
CC(C)(C)NC(=O)c1cc(NC(=O)Cc2ccccc2C(F)F)ccn1 [Example 23.5, N-tert-Butyl-4-[[2-[2-(difluoromethyl)phenyl]acetyl]amino]pyridine-2-carboxamide] | 110% | 

Compound | % Potentiation @ 3.33 μM Avg | EC50
COc1ccc(F)c(F)c1CC(=O)Nc1cccc(C(=O)NC(C)(C)C)c1 [Example 4.8, N-tert-Butyl-3-[[2-(2,3-difluoro-6-methoxy-phenyl)acetyl]amino]benzamide] | 55% | 2070 nM
CC(C)(CN1CCOCC1)NC(=O)c1cc(NC(=O)Cc2cc(Cl)ccc2O)ccn1 [Example 32.6, 4-[[2-(5-Chloro-2-hydroxy-phenyl)acetyl]amino]-N-(1,1-dimethyl-2-morpholino-ethyl)pyridine-2-carboxamide] | 153% | 820 nM
CC(C)(C)NC(=O)c1cc(NC(=O)Cc2c[nH]c3ccccc23)ccn1 [Example 5.6, N-tert-Butyl-4-[[2-(1H-indol-3-yl)acetyl]amino]pyridine-2-carboxamide] | 101% | 150 nM
CC(C)(C)NC(=O)c1cc(NC(=O)Cc2cc(Cl)c(CN3CCC(F)(F)C3)cc2O)ccn1 [Example 27.3, N-tert-Butyl-4-[[2-[5-chloro-4-[(3,3-difluoropyrrolidin-1-yl)methyl]-2-hydroxy-phenyl]acetyl]amino]pyridine-2-carboxamide] | 166% | 290 nM
CC(C)(C)NC(=O)c1cc(NC(=O)Cc2ccc3c(c2)OCCO3)ccn1 [Example 5.31] | 145% | 
CC(C)(C)NC(=O)c1cccc(NC(=O)Cc2ccccc2O)c1 [Example 4.3, N-tert-Butyl-3-[[2-(2-hydroxyphenyl)acetyl]amino] benzamide] | 151% | 1530 nM
CCCC(C)(C)NC(=O)c1cc(NC(=O)Cc2cc(Cl)ccc2O)ccn1 [Example 7.2, 4-[[2-(5-Chloro-2-hydroxy-phenyl)acetyl]amino]-N-(1,1-dimethylbutyl)pyridine-2-carboxamide] | 203% | 260 nM
CC(C)(C)NC(=O)c1cc(NC(=O)Cc2ccc(C(C)(C)C)cc2N)ccn1 [Example 88, 4-[[2-(2-Amino-4-tert-butyl-phenyl)acetyl]amino]-N-tert-butyl-pyridine-2-carboxamide] | 270% | 240 nM
CC(C)(C)NC(=O)c1cc(NC(=O)NCc2ccccc2Cl)ccn1 [Example 64.5, N-tert-Butyl-4-[(2-chlorophenyl)methylcarbamoylamino]pyridine-2-carboxamide] | 143% | 450 nM
CC(C)(C#N)NC(=O)c1cc(NC(=O)c2cnn(Cc3ccccc3)c2)ccn1 [Example 83.21, 4-[(1-Benzylpyrazole-4-carbonyl)amino]-N-(1-cyano-1-methyl-ethyl)pyridine-2-carboxamide] | 70% | 
CC(C)(C)NC(=O)c1cccc(NC(=O)Cc2cc(C#N)ccc2O)c1 [Example 12, N-tert-Butyl-3-[[2-(5-cyano-2-hydroxy-phenyl)acetyl]amino] benzamide] | 112% | 1760 nM
O=C(Cc1cc(Cl)ccc1O)Nc1ccnc(C(=O)Nc2ccccc2)c1 [Example 35.16, 4-[[2-(5-Chloro-2-hydroxy-phenyl)acetyl]amino]-N-phenyl-pyridine-2-carboxamide] | 85% | 330 nM
N#CC1(NC(=O)c2cc(NC(=O)Cc3ccc4ncccc4c3)ccn2)CCOCC1 [Example 23.16, N-(4-Cyanotetrahydropyran-4-yl)-4-[[2-(6-quinolyl)acetyl]amino]pyridine-2-carboxamide] | 68% | 1400 nM
O=C(Cc1cc(F)ccc1O)Nc1ccnc(C(=O)NC2(CO)CCC2)c1 [Example 81.5, 4-[[2-(5-Fluoro-2-hydroxy-phenyl)acetyl]amino]-N-[1-(hydroxymethyl)cyclobutyl] pyridine-2-carboxamide] | 74% | 
O=C(Cc1cc(Cl)ccc1O)Nc1ccnc(C(=O)NC23CC4CC(CC(C4)C2)C3)c1 [Example 1.3, N-(1-Adamantyl)-4-[[2-(5-chloro-2-hydroxy-phenyl)acetyl]amino]pyridine-2-carboxamide] | 233% | 240 nM
C#CC(C)(C)NC(=O)c1cc(NC(=O)Cc2ccccc2C(F)(F)F)ccn1 [Example 5.38, N-(1,1-Dimethylprop-2-ynyl)-4-[[2-[2-(trifluoromethyl)phenyl]acetyl]amino]pyridine-2-carboxamide] | 231% | 150 nM
CC(O)c1cccc(CC(=O)Nc2ccnc(C(=O)NC(C)(C)C)c2)c1 (stereo not drawn) [Example 54, N-tert-Butyl-4-[[2-[3-(1-hydroxyethyl)phenyl]acetyl]amino]pyridine-2-carboxamide] | 62% | 
O=C(Cc1cc(Cl)ccc1O)Nc1ccnc(C(=O)NCc2ccccc2O)c1 [Example 32.5, 4-[[2-(5-Chloro-2-hydroxy-phenyl)acetyl]amino]-N-[(2-hydroxyphenyl)methyl]pyridine-2-carboxamide] | 177% | 590 nM
